Holding throughout (assay): LanthaScreen Binding - Eu-anti-GST
What all share (settings): read-out: Percentage of inhibition

The target in experiment [1] is BMPR1A (ALK3) (Homo sapiens, UniProt P36894). The essentials:
(§1)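 Compound tested at 1 μM only; no dose–response. Data are % inhibition from a whole-panel kinase screen.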

The target of experiment [2] is T1, MERTK (cMER) A708S (Homo sapiens, UniProt Q12866, A708S).
T1 construct: purchased Life Technologies
In outline:
as §1

For experiment [3], the target named is T2, ACVRL1 (ALK1) (Homo sapiens, UniProt P37023).
T2 construct: purchased Life Technologies (SelectScreen service)
In outline: as §1

The target in experiment [4] is T3, RET M918T (Homo sapiens, UniProt P07949, M918T).
T3 construct: purchased Life Technologies
The essentials:
as §1

For experiment [5], the target named is T4, PKN2 (PRK2) (Homo sapiens, UniProt Q16513).
T4 construct: purchased Life Technologies
In outline:
as §1

In experiment [6] the target is MKNK2 (MNK2) (Homo sapiens, UniProt Q9HBH9). The essentials:
as §1

Experiment [7] has as its target PKMYT1 (Homo sapiens, UniProt Q99640). The essentials: as §1
Experiment [8] addresses T5, KIT N822K (Homo sapiens, UniProt P10721, N822K).
T5 construct: purchased Life Technologies (SelectScreen Whole Panel service)
In outline: as §1

The target of experiment [9] is T6, KIT D816H (Homo sapiens, UniProt P10721, D816H).
T6 construct: purchased Life Technologies (SelectScreen service)
The essentials: as §1

Experiment [10] has as its target T7, IRAK3 (Homo sapiens, UniProt Q9Y616).
T7 construct: purchased Life Technologies (SelectScreen service)
In outline:
as §1

T7 sequence (Q9Y616 whole entry): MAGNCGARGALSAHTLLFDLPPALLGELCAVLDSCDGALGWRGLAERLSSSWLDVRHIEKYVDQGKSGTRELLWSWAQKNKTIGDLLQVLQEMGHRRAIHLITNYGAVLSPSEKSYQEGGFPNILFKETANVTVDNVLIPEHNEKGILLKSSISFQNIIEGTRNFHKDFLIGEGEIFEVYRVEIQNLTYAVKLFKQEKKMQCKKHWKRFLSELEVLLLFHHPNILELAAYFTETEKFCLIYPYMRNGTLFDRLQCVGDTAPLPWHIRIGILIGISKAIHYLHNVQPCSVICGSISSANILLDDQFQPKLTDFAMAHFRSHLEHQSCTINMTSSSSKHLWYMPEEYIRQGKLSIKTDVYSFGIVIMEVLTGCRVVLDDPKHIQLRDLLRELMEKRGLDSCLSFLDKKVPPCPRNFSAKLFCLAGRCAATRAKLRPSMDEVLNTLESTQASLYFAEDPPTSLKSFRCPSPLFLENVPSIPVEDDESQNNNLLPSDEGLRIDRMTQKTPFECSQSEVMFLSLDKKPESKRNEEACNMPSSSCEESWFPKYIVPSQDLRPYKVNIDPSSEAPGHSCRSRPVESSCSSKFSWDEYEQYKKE
MKNK2 (MNK2), sequence (Q9HBH9 whole entry): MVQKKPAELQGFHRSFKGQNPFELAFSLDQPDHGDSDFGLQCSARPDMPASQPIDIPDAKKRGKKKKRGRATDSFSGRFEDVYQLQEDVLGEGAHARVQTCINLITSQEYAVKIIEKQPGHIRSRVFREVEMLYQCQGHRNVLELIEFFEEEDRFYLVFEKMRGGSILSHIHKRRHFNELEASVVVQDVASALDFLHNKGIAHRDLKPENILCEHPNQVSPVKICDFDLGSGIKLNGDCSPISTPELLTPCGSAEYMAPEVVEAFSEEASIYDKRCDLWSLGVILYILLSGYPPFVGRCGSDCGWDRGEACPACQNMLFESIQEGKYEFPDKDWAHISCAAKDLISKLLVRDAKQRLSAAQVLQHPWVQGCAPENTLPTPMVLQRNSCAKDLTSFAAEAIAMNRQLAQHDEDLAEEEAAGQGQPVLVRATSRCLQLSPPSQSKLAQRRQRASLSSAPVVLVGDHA
T1 sequence (Q12866 21-999 A708S): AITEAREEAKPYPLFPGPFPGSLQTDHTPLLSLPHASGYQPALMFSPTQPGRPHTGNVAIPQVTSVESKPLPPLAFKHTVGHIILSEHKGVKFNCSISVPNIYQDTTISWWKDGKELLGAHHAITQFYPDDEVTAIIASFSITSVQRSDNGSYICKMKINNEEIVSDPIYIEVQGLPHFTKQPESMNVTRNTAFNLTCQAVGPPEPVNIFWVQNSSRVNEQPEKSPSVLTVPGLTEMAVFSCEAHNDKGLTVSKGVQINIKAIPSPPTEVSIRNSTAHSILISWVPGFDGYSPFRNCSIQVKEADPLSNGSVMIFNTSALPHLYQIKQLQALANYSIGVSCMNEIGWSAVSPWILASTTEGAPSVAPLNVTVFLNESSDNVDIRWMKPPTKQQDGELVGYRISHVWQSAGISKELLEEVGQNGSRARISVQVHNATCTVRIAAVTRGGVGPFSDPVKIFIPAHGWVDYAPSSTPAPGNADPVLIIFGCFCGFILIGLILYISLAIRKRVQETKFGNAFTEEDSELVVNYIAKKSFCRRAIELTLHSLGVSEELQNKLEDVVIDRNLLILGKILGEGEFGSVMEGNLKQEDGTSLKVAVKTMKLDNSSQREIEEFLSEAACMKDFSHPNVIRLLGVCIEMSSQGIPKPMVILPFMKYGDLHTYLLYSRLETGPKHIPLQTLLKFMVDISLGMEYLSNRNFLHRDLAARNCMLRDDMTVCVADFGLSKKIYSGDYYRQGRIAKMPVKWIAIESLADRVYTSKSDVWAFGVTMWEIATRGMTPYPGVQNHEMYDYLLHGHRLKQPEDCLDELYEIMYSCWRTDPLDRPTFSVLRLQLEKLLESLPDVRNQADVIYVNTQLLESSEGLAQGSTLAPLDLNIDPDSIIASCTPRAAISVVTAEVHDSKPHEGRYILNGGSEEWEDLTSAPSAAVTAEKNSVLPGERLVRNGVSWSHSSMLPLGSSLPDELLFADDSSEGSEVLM
T3 sequence (P07949 29-1114 M918T): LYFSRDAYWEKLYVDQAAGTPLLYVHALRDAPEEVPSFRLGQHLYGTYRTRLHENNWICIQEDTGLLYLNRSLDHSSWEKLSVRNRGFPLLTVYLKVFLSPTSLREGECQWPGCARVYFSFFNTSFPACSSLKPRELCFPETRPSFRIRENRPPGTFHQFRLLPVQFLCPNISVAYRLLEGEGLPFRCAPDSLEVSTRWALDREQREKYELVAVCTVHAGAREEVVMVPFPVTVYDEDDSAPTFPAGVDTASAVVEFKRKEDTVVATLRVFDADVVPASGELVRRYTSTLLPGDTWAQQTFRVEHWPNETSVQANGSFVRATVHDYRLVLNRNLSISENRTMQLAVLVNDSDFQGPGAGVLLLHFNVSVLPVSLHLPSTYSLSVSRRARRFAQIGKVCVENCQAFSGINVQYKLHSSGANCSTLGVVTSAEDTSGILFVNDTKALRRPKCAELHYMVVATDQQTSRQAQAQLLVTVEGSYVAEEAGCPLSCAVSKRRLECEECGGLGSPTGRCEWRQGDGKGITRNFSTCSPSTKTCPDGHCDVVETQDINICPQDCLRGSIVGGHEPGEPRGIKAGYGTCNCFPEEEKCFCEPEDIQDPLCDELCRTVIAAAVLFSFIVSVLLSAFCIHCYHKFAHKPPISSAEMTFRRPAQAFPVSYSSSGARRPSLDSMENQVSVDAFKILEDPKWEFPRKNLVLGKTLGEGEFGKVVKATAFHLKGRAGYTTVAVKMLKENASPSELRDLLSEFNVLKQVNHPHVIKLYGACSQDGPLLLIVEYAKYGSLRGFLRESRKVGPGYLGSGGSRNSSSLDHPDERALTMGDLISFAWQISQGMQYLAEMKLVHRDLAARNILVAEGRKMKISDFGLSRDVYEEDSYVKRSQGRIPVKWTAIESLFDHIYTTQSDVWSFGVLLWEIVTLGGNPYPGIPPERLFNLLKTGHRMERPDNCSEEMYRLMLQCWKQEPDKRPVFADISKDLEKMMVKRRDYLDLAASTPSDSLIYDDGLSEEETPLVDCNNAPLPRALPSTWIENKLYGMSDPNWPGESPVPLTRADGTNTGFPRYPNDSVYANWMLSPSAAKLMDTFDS
BMPR1A (ALK3), sequence (P36894 24-532): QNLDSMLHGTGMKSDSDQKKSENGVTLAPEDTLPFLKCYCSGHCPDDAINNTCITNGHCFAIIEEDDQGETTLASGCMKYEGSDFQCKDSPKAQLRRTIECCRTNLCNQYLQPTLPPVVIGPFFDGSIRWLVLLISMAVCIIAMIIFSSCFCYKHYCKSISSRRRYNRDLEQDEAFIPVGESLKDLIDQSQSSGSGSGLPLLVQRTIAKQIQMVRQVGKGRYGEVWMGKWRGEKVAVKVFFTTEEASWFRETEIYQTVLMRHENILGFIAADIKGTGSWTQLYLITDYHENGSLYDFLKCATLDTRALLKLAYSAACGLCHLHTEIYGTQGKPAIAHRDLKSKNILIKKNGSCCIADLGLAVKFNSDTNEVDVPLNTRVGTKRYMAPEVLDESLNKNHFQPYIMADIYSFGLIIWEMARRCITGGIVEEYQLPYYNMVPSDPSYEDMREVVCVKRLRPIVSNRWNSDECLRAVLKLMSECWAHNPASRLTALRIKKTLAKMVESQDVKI
T4 sequence (Q16513 whole entry): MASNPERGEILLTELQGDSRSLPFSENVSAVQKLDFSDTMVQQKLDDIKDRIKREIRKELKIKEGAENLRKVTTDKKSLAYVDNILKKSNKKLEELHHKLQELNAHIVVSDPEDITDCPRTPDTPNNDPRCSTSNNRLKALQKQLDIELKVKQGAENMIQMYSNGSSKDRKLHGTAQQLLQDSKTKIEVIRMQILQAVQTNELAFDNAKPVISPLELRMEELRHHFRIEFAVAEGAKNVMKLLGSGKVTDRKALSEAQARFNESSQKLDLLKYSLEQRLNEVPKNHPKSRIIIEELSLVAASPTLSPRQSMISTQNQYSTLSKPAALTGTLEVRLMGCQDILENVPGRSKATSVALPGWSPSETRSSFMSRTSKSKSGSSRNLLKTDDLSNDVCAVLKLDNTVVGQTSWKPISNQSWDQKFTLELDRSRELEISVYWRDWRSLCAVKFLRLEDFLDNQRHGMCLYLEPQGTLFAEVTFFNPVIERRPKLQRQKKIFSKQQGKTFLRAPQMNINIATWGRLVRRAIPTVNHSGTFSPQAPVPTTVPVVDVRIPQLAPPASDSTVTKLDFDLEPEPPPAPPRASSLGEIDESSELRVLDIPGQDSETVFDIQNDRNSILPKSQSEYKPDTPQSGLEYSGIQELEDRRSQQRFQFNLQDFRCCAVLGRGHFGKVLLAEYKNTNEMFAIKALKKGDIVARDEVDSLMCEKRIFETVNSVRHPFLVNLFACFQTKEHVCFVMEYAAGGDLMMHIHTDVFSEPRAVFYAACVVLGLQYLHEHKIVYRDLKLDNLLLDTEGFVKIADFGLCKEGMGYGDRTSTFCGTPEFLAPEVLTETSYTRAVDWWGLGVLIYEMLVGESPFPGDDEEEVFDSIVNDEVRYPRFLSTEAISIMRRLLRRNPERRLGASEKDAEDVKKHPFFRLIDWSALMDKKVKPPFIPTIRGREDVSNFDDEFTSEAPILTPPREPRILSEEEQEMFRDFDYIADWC

Take `COc1ccc2[nH]c3c(=O)[nH]c4ccc(O)cc4c3c2c1` [Compound 55, 2-Hydroxy-10-methoxy-5,7-dihydro-6H-indolo[2,3-c]quinolin-6-one]: the inhibition (usually the share of the control response that was lost under treatment) at 1 µM was 6% in experiment [1]; 31% in experiment [2]; 25% in experiment [3]; 94% in experiment [4]; 32% in experiment [5]; 19% in [6]. Also, the inhibition at 1 µM was found to be 14% in [7], 45% in [8], 80% in [9] and 77% in experiment [10].

Values taken from publication PMC9186362, “Design and biological evaluation of substituted 5,7-dihydro-6H-indolo[2,3-c]quinolin-6-one as novel selective Haspin inhibitors” (Journal of Enzyme Inhibition and Medicinal Chemistry, 2022).
